Experimental data as given in ChEMBL document CHEMBL4184141, “Investigating the Antibacterial Activity of Biphenylthiazoles against Methicillin- and Vancomycin-Resistant Staphylococcus aureus (MRSA and VRSA)” (J Med Chem, 2017).
In brackets after ≈: the same amount, converted by molar mass. Activity calls are given as the source filed them. No cut-off for these calls is given here.

Legend:
[1] = Aqueous solubility of the compound in PBS after 2 hrs by turbidimetric method; type: physicochemical
[2] = system: Staphylococcus aureus; assay: Antibacterial activity against methicillin-resistant Staphylococcus aureus 2658 RCMB up to 20 hrs by broth microdilution assay; type: functional
[3] = system: Staphylococcus aureus; assay: Bactericidal activity against methicillin-resistant Staphylococcus aureus USA300 assessed as time required for 3 log10CFU reduction in bacterial load at 4 times MIC by time kill assay; type: functional
[4] = Apparent permeability of the compound across basolateral side to apical side in human Caco2 cells by LC-MS/MS analysis; type: ADME, cell-based; conditions: Caco-2
[5] = Efflux ratio of permeability from basolateral to apical side over apical to basolateral side of human Caco2 cells by LC-MS/MS analysis; type: ADME, cell-based; conditions: Caco-2
[6] = system: Staphylococcus aureus; assay: Bactericidal activity against vancomycin-resistant Staphylococcus aureus VRS12 up to 18 hrs by broth microdilution assay; type: functional; conditions: VRS12, 18 h, read-out: MBC99.9
[7] = system: Staphylococcus aureus; assay: Antibacterial activity against Staphylococcus aureus RN4220 up to 20 hrs by broth microdilution assay; type: functional; conditions: RN4220, 20 h
[8] = system: Staphylococcus aureus; assay: Antibacterial activity against vancomycin-resistant Staphylococcus aureus VRS11a up to 20 hrs by broth microdilution assay; type: functional
[9] = system: Staphylococcus aureus; assay: Bactericidal activity against methicillin-resistant Staphylococcus aureus USA400 NRS123 up to 18 hrs by broth microdilution assay; type: functional; conditions: USA400 NRS123, 18 h, read-out: MBC99.9
[10] = system: Staphylococcus aureus; assay: Bactericidal activity against vancomycin-resistant Staphylococcus aureus VRS10 up to 18 hrs by broth microdilution assay; type: functional; conditions: VRS10, 18 h, read-out: MBC99.9
[11] = system: Staphylococcus aureus; assay: Bactericidal activity against vancomycin-resistant Staphylococcus aureus VRS11a up to 18 hrs by broth microdilution assay; type: functional; conditions: read-out: MBC99.9
[12] = system: Staphylococcus aureus; assay: Antibacterial activity against vancomycin-resistant Staphylococcus aureus VRS12 up to 20 hrs by broth microdilution assay; type: functional; conditions: VRS12, 20 h
[13] = system: Staphylococcus aureus; assay: Antibacterial activity against vancomycin-resistant Staphylococcus aureus VRS10 up to 20 hrs by broth microdilution assay; type: functional; conditions: VRS10, 20 h
[14] = system: Staphylococcus aureus; assay: Bactericidal activity against methicillin-resistant Staphylococcus aureus NRS119 up to 18 hrs by broth microdilution assay; type: functional; conditions: NRS119, 18 h, read-out: MBC99.9
[15] = system: Staphylococcus aureus; assay: Antibacterial activity against methicillin-resistant Staphylococcus aureus USA400 NRS123 up to 20 hrs by broth microdilution assay; type: functional; conditions: USA400 NRS123, 20 h
[16] = system: Staphylococcus aureus; assay: Antibacterial activity against methicillin-resistant Staphylococcus aureus NRS119 up to 20 hrs by broth microdilution assay; type: functional; conditions: NRS119, 20 h
[17] = system: Staphylococcus aureus; assay: Bactericidal activity against Staphylococcus aureus RN4220 up to 18 hrs by broth microdilution assay; type: functional; conditions: RN4220, 18 h, read-out: MBC99.9
[18] = system: Pseudomonas aeruginosa; assay: Antibacterial activity against Pseudomonas aeruginosa ATCC 15442 up to 20 hrs by broth microdilution assay; type: functional; conditions: ATCC 15442, 20 h
[19] = system: HRT-18 cell line; assay: Cytotoxicity against human HRT18 cells at 64 microg/ml after 6 hrs by MTS assay; type: cell-based; conditions: hrt-18, 6 h
[20] = system: HRT-18 cell line; assay: Cytotoxicity against human HRT18 cells up to 32 microg/ml after 6 hrs by MTS assay; type: cell-based; conditions: hrt-18, 6 h
[21] = system: Enterococcus faecium; assay: Antibacterial activity against vancomycin-resistant Enterococcus faecium ATCC 700221 up to 20 hrs by broth microdilution assay; type: functional; conditions: ATCC 700221, 20 h
[22] = system: Staphylococcus aureus; assay: Antibacterial activity against methicillin-resistant Staphylococcus aureus USA300 at 4 times MIC after 12 hrs by time-kill assay; type: functional, organism-based
[23] = system: HRT-18 cell line; assay: Cytotoxicity against human HRT18 cells up to 128 microg/ml after 6 hrs by MTS assay; type: cell-based; conditions: hrt-18, 6 h
[24] = system: Staphylococcus aureus; assay: Potentiation of vancomycin-induced antibacterial activity against vancomycin-resistant Staphylococcus aureus VRS10 assessed as reduction in vancomycin MIC after 20 hrs by checkerboard assay; type: functional
[25] = system: Staphylococcus aureus; assay: Synergistic antibacterial activity against vancomycin-resistant Staphylococcus aureus VRS10 after 20 hrs in presence of vancomycin by checkerboard assay; type: functional; conditions: VRS10, 20 h
[26] = system: Staphylococcus aureus; assay: Potentiation of vancomycin-induced antibacterial activity against vancomycin-resistant Staphylococcus aureus VRS10 assessed as vancomycin MIC at 0.5 times MIC after 20 to 22 hrs (reference value: […] ug/mL); type: functional
[27] = system: Staphylococcus aureus; assay: Potentiation of vancomycin-induced antibacterial activity against vancomycin-resistant Staphylococcus aureus VRS10 assessed as vancomycin MIC after 20 hrs by checkerboard assay; type: functional; conditions: VRS10, 20 h
[28] = Half life in human liver microsomes in absence of NADPH by LC-MS/MS analysis; type: ADME, microsome
[29] = Intrinsic clearance in human liver microsomes in absence of NADPH by LC-MS/MS analysis; type: ADME, microsome; conditions: read-out: CLH

| SMILES | MIC [2] [µg/mL] | Papp B→A [4] [×10⁻⁶ cm/s] | efflux ratio [5] | MBC [6] [µg/mL] | MIC [7] [µg/mL] | MIC [8] [µg/mL] | MBC [9] [µg/mL] | MBC [10] [µg/mL] | MBC [11] [µg/mL] | MIC [12] [µg/mL] | MIC [13] [µg/mL] | MBC [14] [µg/mL] | MIC [15] [µg/mL] | MIC [16] [µg/mL] | MBC [17] [µg/mL] | other results |
| --- | --- | --- | --- | --- | --- | --- | --- | --- | --- | --- | --- | --- | --- | --- | --- | --- |
| C/C(=N\NC(=N)N)c1sc(-c2ccc(-c3ccccc3)cc2)nc1C | 1.6 to 2.4 (≈ 4.58 to 6.87 µM) | 1.2 | > 2 | – | – | – | – | – | – | – | – | – | – | – | – | solubility kinetic at 2 h [1]: 2.7 µM (≈ 0.944 µg/mL); Time [3]: 10 h |
| CNC(=N)Nc1nccc(-c2sc(-c3ccc(-c4ccccc4)cc3)nc2C)n1 | 1.56 (≈ 3.9 µM) | – | – | 64 (≈ 160 µM) | 8 (≈ 20 µM) | 32 (≈ 79.9 µM) | 16 (≈ 39.9 µM) | 64 (≈ 160 µM) | 64 (≈ 160 µM) | 64 (≈ 160 µM) | 32 (≈ 79.9 µM) | 16 (≈ 39.9 µM) | 16 (≈ 39.9 µM) | 8 (≈ 20 µM) | 32 (≈ 79.9 µM) | – |
| Cc1nc(-c2ccc(-c3ccccc3)cc2)sc1-c1ccnc(NC(=N)N2CCOCC2)n1 | 0.78 (≈ 1.71 µM) | – | – | 64 (≈ 140 µM) | 8 (≈ 17.5 µM) | 32 (≈ 70.1 µM) | 16 (≈ 35 µM) | 64 (≈ 140 µM) | 64 (≈ 140 µM) | 64 (≈ 140 µM) | 32 (≈ 70.1 µM) | 16 (≈ 35 µM) | 16 (≈ 35 µM) | 8 (≈ 17.5 µM) | 32 (≈ 70.1 µM) | MIC [18]: > 64 µg/mL; Activity [19]: Toxic; Activity [20]: Non-Toxic; MIC [21]: 8 µg/mL (≈ 17.5 µM); Activity [22]: inactive |
| Cc1nc(-c2ccc(-c3ccccc3)cc2)sc1-c1ccnc(N2CCN(C)CC2)n1 | 6.25 (≈ 14.6 µM) | – | – | – | – | – | – | – | – | – | 32 (≈ 74.8 µM) | – | – | – | – | Activity [23]: Non-Toxic; fractional inhibitory concentration index (FICI) [24]: 0.03 - 0.53; MIC [25]: 1 µg/mL; MIC [26]: 1 µg/mL; MIC [27]: 0.5 to 64 µg/mL |
| CCCCc1ccc(-c2nc(C)c(/C(C)=N/NC(=N)N)s2)cc1 | 4.7 to 4.8 (≈ 14.3 to 14.6 µM) | 1.2 | > 2 | – | – | – | – | – | – | – | – | – | – | – | – | half-life [28]: > 4 h; microsomal CLint [29]: < 9.6 µL/min/mg |
